“Also recorded” adds a separate entry of the source. Read-outs that look alike come from different tables or passages of the source.
Columns and labels:
[1] = system: SARS-CoV-2; set-up: method as in PMID 32703818; details: Calu-3 cells (airway epithelial cells) infected with SARS-CoV-2; cited from earlier work
[2] = system: human serum albumin; details: cited from earlier work
[3] = system: CYP1A2; details: cited from earlier work
[4] = system: CYP2C9; details: cited from earlier work
[5] = system: CYP2C19; details: cited from earlier work
[6] = system: human CYP3A4; details: cited from earlier work
[7] = system: cynomolgus monkey CYP1A2; details: cited from earlier work
[8] = Depletion of inhibitors in rat primary hepatocyte suspension (LC-MS/MS), PK prediction; type: in vitro ADME; details: cryopreserved primary hepatocytes in suspension; rat hepatocytes, 10 µM inhibitor, 5 × 10^5 cells/mL, 0-300 min, scaled to liver/bw
Description: (§1) Cryopreserved rat, dog and cynomolgus monkey primary hepatocytes were obtained from Primacyt (Primacyt, Schwerin, Germany). Hepatocytes were thawed using cryopreserved hepatocyte thawing medium (Primacyt, Schwerin, Germany), and cells were centrifuged (10 min, 100× g, 20 °C) to remove supernatants. The viability of hepatocytes was examined by the Trypan blue exclusion method, and it was confirmed that more than 90% of the cells were alive. Cell suspensions were then diluted with serum-free maintenance medium (Primacyt, Schwerin, Germany) after cell counting in Bürker chamber to the appropriate concentration (original concentration of the viable hepatocytes was 10^7 cells/mL).
(§2) Stock solutions of MI-463, MI-472, MI-485 and MI-1900 (10 mM) in dimethyl-sulfoxide were kept at −20 °C. Time courses of the unchanged amount of the inhibitors (in %) after incubation with hepatocytes were measured. Each compound was incubated in cell suspension (at the concentration of 5 × 10^5 cells/mL in 6-well plates) at constant and low-speed shaking at 37 °C in a humid atmosphere containing 5% CO2. […] Cells were incubated with serum-free maintenance medium either without or with each selected MI for 5 h. At various time points (0, 30, 60, 120, 180, and 300 min), the incubation mixtures were sampled (aliquots: 0.15 mL) and terminated by the addition of 0.1 mL ice-cold acetonitrile. The cell debris was separated by centrifugation, and the supernatants were analyzed by LC-MS/MS for quantitation of the remaining amount of the inhibitors.
(§3) For the LC-MS/MS investigations, 120 μL from the incubation mixture samples obtained as described above was removed and mixed with 315 μL chilled acetonitrile and 15 μL triphenylphosphate solution (TPP; 12000 ng/mL in acetonitrile) used as internal standard for the quantitation. After vortex mixing, the samples were centrifuged at 4 °C and 13300 RPM for 10 min. The supernatant was filtered through a PVDF syringe filter of 0.22 μm pore diameter, then transferred to chromatographic vials.
(§4) The LC-MS/MS instrument used for analyzing the MI compounds was a Shimadzu LCMS 8030+ system operated with an electrospray ion source (ESI) in positive multiple reaction monitoring (MRM) mode. A Phenomenex Kinetex C18 EVO 100 × 4.6 mm ID (2.6 µm particle size) column equipped with a 40 × 2 mm C18 guard column was used for the chromatographic separation. Gradient elution was used with eluents “A”: 50 mM ammonium acetate in water (pH 5 set by acetic acid) and “B”: 0.1 v/v% formic acid in acetonitrile. The flow rate was 0.4 mL/min, a chromatographic run took 8 min. The column oven was set to 30 °C, and the autoinjector’s temperature was at 6 °C. The injected volume was 10 µL. Other MS parameters were as follows: interface 4.5 kV; interface temperature 350 °C; desolvation line 300 °C; heat block 400 °C; detector 1.78 kV, nebulizing gas (N2) 3 liters/min, drying gas (N2) 15 liters/min; collision gas (Ar) 230 kPa.
(§5) The intrinsic clearance for hepatocytes (Clint) [mL (min 5 × 10^5 cells) ^−1] was calculated from the decrease in the concentration of MI compounds as follows: Clint = β=ln2/t1/2 [28] For scaling up, the Clint value to obtain Clint per whole liver (g)/bw(kg), the cell concentration in liver, the average liver weight and average body weight parameters were used (Table 1). The value for hepatic clearance (ClH) was calculated as follows: ClH=Clintliver/bw∗fu∗Qplasma/(Clintliver/bw∗fu)+Qplasma where the flow rate of Qplasma = QH* plasma/blood ratio. To calculate ClH, the hepatic flow rate, plasma/blood ratio (Table 1) and fu = 1 values were used. (QH is the hepatic blood flow, while fu is the unbound fraction of the compound.) The hepatic extraction ratio was defined as E = ClH/QH, and the bioavailability (%) was F = (1 − E) * 100 [28, 31, 32, 33].

[9] = system: rat primary hepatocytes; assay: as above; type: in vitro ADME; details: for Extraction Ratio EH / Classification / Predicted Cl CLH: rat; for Classification: 0.3 cut-off of E between low and intermediate extraction; for Predicted Cl CLH: fu = 1
Description: as §1, §2, §3, §4, §5

[10] = Depletion of inhibitors in dog primary hepatocyte suspension (LC-MS/MS), PK prediction; type: in vitro ADME; details: dog, cryopreserved primary hepatocytes in suspension, dog hepatocytes, 10 µM inhibitor, 5 × 10^5 cells/mL, 0-300 min, scaled to liver/bw
Description: as §1, §2, §3, §4, §5

[11] = system: dog primary hepatocytes; assay: as above; type: in vitro ADME; details: for Extraction Ratio EH / Classification / Predicted Cl CLH: dog; for Depletion of parent compound (in words): 10 µM; for Classification: 0.3 cut-off of E between low and intermediate extraction; for Predicted Cl CLH: fu = 1
Description: as §1, §2, §3, §4, §5

[12] = Depletion of inhibitors in cynomolgus monkey primary hepatocyte suspension (LC-MS/MS), PK prediction; type: in vitro ADME; details: cynomolgus monkey, cryopreserved primary hepatocytes in suspension; macaque hepatocytes, 10 µM inhibitor, 5 × 10^5 cells/mL, 0-300 min, scaled to liver/bw
Description: as §1, §2, §3, §4, §5

[13] = system: cynomolgus monkey primary hepatocytes; assay: as above; type: in vitro ADME; details: for Depletion of parent compound (in words): cynomolgus monkey hepatocytes, 10 µM, 0-300 min; for Extraction Ratio EH / Classification / Predicted Cl CLH: macaque; for Classification: 0.3 cut-off of E between low and intermediate extraction; for Predicted Cl CLH: fu = 1
Description: as §1, §2, §3, §4, §5

[14] = biological target: TMPRSS2; details: competitive inhibition; previous enzyme kinetic measurements; cited from earlier work
[15] = biological target: matriptase; details: previous enzyme kinetic measurements, cited from earlier work
[16] = system: H9N2 influenza virus; details: MDCK cells, matriptase-dependent; cited from earlier work
[17] = system: TMPRSS2; set-up: method as in PMID 35344983; details: cited from earlier work
[18] = system: SARS-CoV-2; set-up: method as in PMID 35344983; details: human lung epithelium-derived human airway cells; cited from earlier work
[19] = system: SARS-CoV-2; set-up: method as in PMID 35344983; details: K18-human ACE2 transgenic mouse model; cited from earlier work
[20] = system: COVID-19; set-up: method as in PMID 35803469; details: repurposed drug candidate; cited from earlier work

Structure (SMILES)	Binding to human serum albumin [2]	Influence on CYP1A2 activity [3]	Influence on CYP2C9 activity [4]	Influence on CYP2C19 activity [5]	Modulation of human CYP3A4 function [6]	Modulation of cynomolgus monkey CYP1A2 [7]	CLint scaled at 10 µM [8]	Extraction Ratio EH [9]	Classification [9]	Predicted Cl CLH [9]	CLint scaled at 10 µM [10]	Extraction Ratio EH [11]	Depletion of parent compound (in words) ([11]; dog hepatocytes, 0-300 min)	Classification [11]	Predicted Cl CLH [11]	CLint scaled at 10 µM [12]	Extraction Ratio EH [13]	Classification [13]	Predicted Cl CLH [13]	other results
N=C(N)c1cccc(C[C@H](NS(=O)(=O)c2cccc(-c3ccc(Cl)cc3Cl)c2)C(=O)N2CCC(CCN)CC2)c1.O=C(O)C(F)(F)F.O=C(O)C(F)(F)F [MI-432]	did not bind to human serum albumin to a great extent	did not influence the activity	did not influence the activity	did not influence the activity	could modulate	could modulate	–	–	–	–	–	–	–	–	–	–	–	–	–	SARS-CoV-2 virus titer [1]: could successfully lower viral titers; also recorded: effectively decrease SARS-CoV-2 virus titer
COc1ccc(-c2cccc(S(=O)(=O)N[C@@H](Cc3cccc(C(=N)N)c3)C(=O)N3CCC(NC(=O)NC4CCCCC4)CC3)c2)c(OC)c1 [MI-463]	did not bind to human serum albumin to a great extent	did not influence the activity	did not influence the activity	did not influence the activity	could modulate	could modulate	31.9 mL/min/kg	0.289	Low-extraction drug	15.97	19.5 mL/min/kg	0.299	slowly decreased from 180 min; also recorded: pronounced stability against biotransformation	Low-extraction drug	9.25	6.58 mL/min/kg	0.121	Low-extraction drug	5.27	Depletion of parent compound (in words) ([9]; rat hepatocytes, 10 µM, 0-300 min): elevated depletion rates; Depletion of parent compound (in words) [13]: elevated depletion rates; Ki [14]: very low, nanomolar; Ki [15]: very low, nanomolar
COc1ccc(-c2cccc(S(=O)(=O)N[C@@H](Cc3cccc(C(=N)N)c3)C(=O)N3CCC(N)CC3)c2)c(OC)c1 [MI-472]	–	–	–	–	–	–	35.6 mL/min/kg	0.305	Intermediate-extraction drug	16.85	26.7 mL/min/kg	0.343	significantly depleted even at 30 min	Intermediate-extraction drug	10.61	12 mL/min/kg	0.190	Low-extraction drug	8.27	–
COc1ccc(-c2cccc(S(=O)(=O)N[C@@H](Cc3cccc(C(=N)N)c3)C(=O)N3CCC(NC(=O)NC(C)(C)C)CC3)c2)c(OC)c1 [MI-485]	–	–	–	–	–	–	37.8 mL/min/kg	0.314	Intermediate-extraction drug	17.33	22.8 mL/min/kg	0.321	significantly depleted even at 30 min	Intermediate-extraction drug	9.93	11.4 mL/min/kg	0.183	Low-extraction drug	7.98	Inhibition of H9N2 influenza virus replication [16]: showed inhibition; Ki ([15]; read-out: Ki): < 5 nM
COc1ccc(-c2cccc(S(=O)(=O)N[C@@H](Cc3cccc(C(=N)N)c3)C(=O)N3CCN(C(=O)NC4CCCCC4)CC3)c2)c(OC)c1 [MI-1900]	did not bind to human serum albumin to a great extent	did not influence the activity	did not influence the activity	did not influence the activity	could modulate	could modulate	33.8 mL/min/kg	0.298	Low-extraction drug	16.43	10.5 mL/min/kg	0.212	significantly depleted even at 30 min	Low-extraction drug	6.56	16.1 mL/min/kg	0.230	Low-extraction drug	10.03	CLint scaled ([11]; dog hepatocytes, 10 µM inhibitor, 5 × 10^5 cells/mL, 0-300 min, scaled to liver/bw): 10.5 mL/min/kg; Depletion of parent compound (in words) [13]: depleted at the highest speed; also recorded: rapidly; also recorded: depleted faster; SARS-CoV-2 virus titer [1]: could successfully lower viral titers; also recorded: effectively decrease SARS-CoV-2 virus titer; Ki [14]: very low, nanomolar; Ki [15]: very low, nanomolar
CS(=O)(=O)N[C@@H](CCC(N)=O)C(=O)N[C@@H](Cc1ccccc1)C(=O)N[C@@H](CCCN=C(N)N)C(=O)c1nc2ccccc2s1 [N-0385, Ms-Gln-Phe-Arg-kbt]	–	–	–	–	–	–	–	–	–	–	–	–	–	–	–	–	–	–	–	IC50 [17]: […]; Inhibition of SARS-CoV-2 infection [18]: effective; Inhibition of SARS-CoV-2 infection [19]: effective
CN(C)C(=O)COC(=O)Cc1ccc(OC(=O)c2ccc(NC(=N)N)cc2)cc1.CS(=O)(=O)O [camostate, camostate mesylate]	–	–	–	–	–	–	–	–	–	–	–	–	–	–	–	–	–	–	–	Outcome of clinical testing for COVID-19 [20]: failed during clinical testing

Reference: publication PMC10045298, “In Vitro Pharmacokinetic Behavior of Antiviral 3-Amidinophenylalanine Derivatives in Rat, Dog and Monkey Hepatocytes” (Biomedicines, 2023)
